What all share (assay type): cell-based
For experiment [1], the target named is T1, Bcl-xL (Homo sapiens, UniProt Q07817).
T1 construct: Measured levels of Bcl-xL protein of HCT116 cells treated with the tested compounds; host or cells: HCT116
Nature of the experiment: HCT116 Bcl-xL degradation, capillary-based immunoassay (WES). Put shortly: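 HCT116 cells treated 24 h with compound at 10/100 nM and/or 9-point dilution (quadruplicates), then lysed. Bcl-xL measured by capillary WES immunoassay, normalized to cofilin and expressed as % of untreated cells. DC50 from four-parameter curve fit.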

Experiment [2] concerns EBC-1 lung cancer cell line. Nature of the experiment: EBC-1 cell proliferation, CellTiter-Glo assay. The note with it: Homo sapiens, 120 h; Ebc-1 cell viability, CTG assay, 5 days of treatment; read-out: CTG 5 day Ebc1 GI50. The essentials:
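EBC-1 cells seeded at 1000 per well overnight, then exposed to 10-point dilutions (0.508 nM–10 μM final) for 5 days at 37 °C, in triplicate. ATP luminescence by CellTiter-Glo, normalised to untreated wells; GI50 from four-parameter logistic fit, runs valid only with at least one doubling.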

In experiment [3] the target is T2, HiBiT-tagged BCL-xL (Homo sapiens, UniProt Q07817).
T2 construct: expressed in transfected cells; host or cells: NCI-H1650 (ATCC No. CRL-5883), engineered HiBiT cell line
T2 sequence (Q07817 whole entry): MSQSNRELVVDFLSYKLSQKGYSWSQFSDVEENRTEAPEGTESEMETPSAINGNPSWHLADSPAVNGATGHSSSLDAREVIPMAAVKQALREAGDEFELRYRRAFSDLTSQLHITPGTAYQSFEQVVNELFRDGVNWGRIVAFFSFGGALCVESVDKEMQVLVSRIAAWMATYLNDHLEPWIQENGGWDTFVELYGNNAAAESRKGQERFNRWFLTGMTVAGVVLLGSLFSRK
Nature of the experiment: NCI-H1650 BCL-xL protein levels, Nano-Glo HiBiT Lytic Detection. The following applies: NCI-H1650 expressing HiBiT-tagged BCL-xL, overnight incubation, read-out: Bcl-xl HIBIT NCIH1650 DC50. The essentials: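 NCI-H1650 cells expressing HiBiT-tagged BCL-xL (5000/well) were treated overnight at 37° C with 10 concentrations, final 0.508 nM-10 μM, in triplicate. Remaining BCL-xL measured by Nano-Glo HiBiT lytic luminescence, normalized to untreated cells; 50% values by four-parameter logistic fit.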
On the technique in general: The HiBiT peptide binds its large partner to form an active luciferase.

Molecules are shown by their SMILES. Where only a bound is given, the exact number is not on record here.

The remaining activity is the signal under treatment as a percentage of the control signal. Read a high remaining activity as a small loss of activity. The GI50 is the concentration that inhibits growth by half.

T1 sequence (Q07817 whole entry): as above

Regarding `Cc1ncsc1-c1ccc(CNC(=O)[C@@H]2CC(O)CN2C(=O)C(NC(=O)CCCCCCC(=O)N2CCN(CCOC34CC5(C)CC(C)(CC(Cn6ncc(-c7ccc(N8CCCc9c8nnc(Nc8nc%10ccccc%10s8)c9C)nc7C(=O)O)c6C)(C5)C3)C4)CC2)C(C)(C)C)cc1` (stereo in doubt) [Example 24, 6-[3-(1,3-benzothiazol-2-ylamino)-4-methyl-6,7-dihydro-5H-pyrido[2,3-c]pyridazin-8-yl]-3-[1-[[3-[2-[4-[8-[[(1S)-1-[(2S,4R)-4-hydroxy-2-[[4-(4-methylthiazol-5-yl)phenyl]methylcarbamoyl]pyrrolidine-1-carbonyl]-2,2-dimethyl-propyl]amino]-8-oxo-octanoyl]piperazin-1-yl]ethoxy]-5,7-dimethyl-1-adamantyl]methyl]-5-methyl-pyrazol-4-yl]pyridine-2-carboxylic acid], the DC50 in experiment [1] (HCT116, 24 h, 9-point serial dilution) was more than 316 nM. In experiment [1] (HCT-116, HCT116, 10 nM, 24 h, % of untreated cells), this compound displayed a remaining activity at 0.01 µM of 75%. In addition, in experiment [1] (HCT-116, HCT116, 100 nM, 24 h, % of untreated cells), the remaining activity at 0.1 µM was 44%.

For `Cc1ncsc1-c1ccc([C@H](C)NC(=O)[C@@H]2C[C@@H](O)CN2C(=O)[C@@H](NC(=O)CC23CC4CC(C2)CC(CC(=O)N2CCN(CC#Cc5ccc(OCCCc6sc(N7CCCc8c7nnc(Nc7nc9ccccc9s7)c8C)nc6C(=O)O)c(F)c5)CC2)(C4)C3)C(C)(C)C)cc1` [Example 42, 2-(3-(benzo[d]thiazol-2-ylamino)-4-methyl-6,7-dihydropyrido [2,3-c]pyridazin-8(5H)-yl)-5-(3-(2-fluoro-4-(3-(4-(2-((3S,5R)-3-(2-(((S)-1-((2S,4R)-4-hydroxy-2-(((S)-1-(4-(4-methylthiazol-5-yl)phenyl)ethyl)carbamoyl)pyrrolidin-1-yl)-3,3-dimethyl-1-oxobutan-2-yl)amino)-2-oxoethyl)adamantan-1-yl)acetyl)piperazin-1-yl)prop-1-yn-1-yl)phenoxy)propyl)thiazole-4-carboxylic acid], in experiment [2], the GI50 was found to be 21 nM. Further, in experiment [3], the DC50 is more than 1670 nM.

As to `Cc1ncsc1-c1ccc([C@H](C)NC(=O)[C@@H]2C[C@@H](O)CN2C(=O)[C@@H](NC(=O)CCCC(=O)N2CCN(CC#Cc3ccc(OCCCc4sc(N5CCCc6c5nnc(Nc5nc7ccccc7s5)c6C)nc4C(=O)O)c(F)c3)CC2)C(C)(C)C)cc1` [Example 35, 2-(3-(benzo[d]thiazol-2-ylamino)-4-methyl-6,7-dihydropyrido [2,3-c]pyridazin-8(5H)-yl)-5-(3-(2-fluoro-4-(3-(4-(5-(((S)-1-((2S,4R)-4-hydroxy-2-(((S)-1-(4-(4-methylthiazol-5-yl)phenyl)ethyl)carbamoyl)pyrrolidin-1-yl)-3,3-dimethyl-1-oxobutan-2-yl)amino)-5-oxopentanoyl)piperazin-1-yl)prop-1-yn-1-yl)phenoxy)propyl)thiazole-4-carboxylic acid], the GI50 in experiment [2] is 19 nM. Besides, the DC50 in experiment [3] is more than 1670 nM.

`Cc1ncsc1-c1ccc(CNC(=O)[C@@H]2C[C@@H](O)CN2C(=O)[C@@H](NC(=O)CCCCCCCCCCC(=O)N2CCN(CC#Cc3ccc(OCCCc4sc(N5CCCc6c5nnc(Nc5nc7ccccc7s5)c6C)nc4C(=O)O)c(F)c3)CC2)C(C)(C)C)cc1` [Example 48, 2-(3-(benzo[d]thiazol-2-ylamino)-4-methyl-6,7-dihydropyrido [2,3-c]pyridazin-8(5H)-yl)-5-(3-(2-fluoro-4-(3-(4-(12-(((S)-1-((2S,4R)-4-hydroxy-2-((4-(4-methylthiazol-5-yl)benzyl)carbamoyl)pyrrolidin-1-yl)-3,3-dimethyl-1-oxobutan-2-yl)amino)-12-oxododecanoyl)piperazin-1-yl)prop-1-yn-1-yl)phenoxy)propyl)thiazole-4-carboxylic acid]: the GI50 in experiment [2] was 12 nM. The DC50 in experiment [3] is 1 nM.

As to `Cc1ncsc1-c1ccc(CNC(=O)[C@@H]2C[C@@H](O)CN2C(=O)[C@@H](NC(=O)CCCCCCC(=O)N2CCN(CC#Cc3ccc(OCCCc4sc(N5CCCc6c5nnc(Nc5nc7ccccc7s5)c6C)nc4C(=O)O)c(F)c3)CC2)C(C)(C)C)cc1` [Example 33, 2-(3-(benzo[d]thiazol-2-ylamino)-4-methyl-6,7-dihydropyrido [2,3-c]pyridazin-8(5H)-yl)-5-(3-(2-fluoro-4-(3-(4-(8-(((S)-1-((2S,4R)-4-hydroxy-2-((4-(4-methylthiazol-5-yl)benzyl)carbamoyl)pyrrolidin-1-yl)-3,3-dimethyl-1-oxobutan-2-yl)amino)-8-oxooctanoyl)piperazin-1-yl)prop-1-yn-1-yl)phenoxy)propyl) thiazole-4-carboxylic acid], the GI50 in experiment [2] came to 33 nM. In addition, in experiment [3], the DC50 is more than 1670 nM.

In the case of `Cc1ncsc1-c1ccc([C@H](C)NC(=O)[C@@H]2C[C@@H](O)CN2C(=O)[C@@H](NC(=O)CCCCCCCCCCC(=O)N2CCN(CC#Cc3ccc(OCCCc4sc(N5CCCc6c5nnc(Nc5nc7ccccc7s5)c6C)nc4C(=O)O)c(F)c3)CC2)C(C)(C)C)cc1` [Example 46, 2-(3-(benzo[d]thiazol-2-ylamino)-4-methyl-6,7-dihydropyrido [2,3-c]pyridazin-8(5H)-yl)-5-(3-(2-fluoro-4-(3-(4-(12-(((S)-1-((2S,4R)-4-hydroxy-2-(((S)-1-(4-(4-methylthiazol-5-yl)phenyl)ethyl)carbamoyl)pyrrolidin-1-yl)-3,3-dimethyl-1-oxobutan-2-yl)amino)-12-oxododecanoyl)piperazin-1-yl)prop-1-yn-1-yl)phenoxy)propyl)thiazole-4-carboxylic acid], in experiment [2], the GI50 was 7 nM. The DC50 in experiment [3] was 2 nM.

Consider `Cc1ncsc1-c1ccc([C@H](C)NC(=O)[C@@H]2C[C@@H](O)CN2C(=O)[C@@H](NC(=O)CCCCCCCCCCC(=O)N2CCN(CCOC34CC5(C)CC(C)(CC(Cn6ncc(-c7ccc(N8CCCc9c8nnc(Nc8nc%10ccccc%10s8)c9C)nc7C(=O)O)c6C)(C5)C3)C4)CC2)C(C)(C)C)cc1` [Example 47, 6-(3-(benzo[d]thiazol-2-ylamino)-4-methyl-6,7-dihydropyrido [2,3-c]pyridazin-8(5H)-yl)-3-(1-(((1r,3s,5R,7S)-3-(2-(4-(12-(((S)-1-((2S,4R)-4-hydroxy-2-(((S)-1-(4-(4-methylthiazol-5-yl)phenyl)ethyl)carbamoyl)pyrrolidin-1-yl)-3,3-dimethyl-1-oxobutan-2-yl)amino)-12-oxododecanoyl)piperazin-1-yl)ethoxy)-5,7-dimethyladamantan-1-yl)methyl)-5-methyl-1H-pyrazol-4-yl)picolinic acid], for which the GI50 in experiment [2] amounted to 76 nM. The DC50 in experiment [3] was determined as 9 nM.

Turning to `Cc1ncsc1-c1ccc([C@H](C)NC(=O)[C@@H]2C[C@@H](O)CN2C(=O)[C@@H](NC(=O)CCCCCCCCCCCN2CCN(CC#Cc3ccc(OCCCc4sc(N5CCCc6c5nnc(Nc5nc7ccccc7s5)c6C)nc4C(=O)O)c(F)c3)CC2)C(C)(C)C)cc1` [Example 51, 2-(3-(benzo[d]thiazol-2-ylamino)-4-methyl-6,7-dihydropyrido [2,3-c]pyridazin-8(5H)-yl)-5-(3-(2-fluoro-4-(3-(4-(12-(((S)-1-((2S,4R)-4-hydroxy-2-(((S)-1-(4-(4-methylthiazol-5-yl)phenyl)ethyl)carbamoyl)pyrrolidin-1-yl)-3,3-dimethyl-1-oxobutan-2-yl)amino)-12-oxododecyl)piperazin-1-yl)prop-1-yn-1-yl)phenoxy)propyl)thiazole-4-carboxylic acid], the GI50 in experiment [2] amounted to 1 nM. Also, the DC50 in experiment [3] turned out to be 0.3 nM.

These data come from patent US20240376094A2, “SELECTIVE BCL-XL PROTAC COMPOUNDS AND METHODS OF USE” (Les Laboratoires Servier, priority 2021, published 2024).
